Data: patent US8546377B2 (AbbVie Inc., priority 2009, dated 2013)
Read-outs that look alike come from different tables or passages of the source.

Key:
5HT2C receptors = target: T1, 5HT2C receptors (Homo sapiens, UniProt P28335); test: Human 5-HT2C functional assay in CHO-K1 cells (calcium flux, FLIPR); format: cell-based; parameters: expressed in transfected cells; host or cells: CHO-K1 cells; details: for Emax: percentage relative to the effect of serotonin
T1 sequence (P28335 33-458): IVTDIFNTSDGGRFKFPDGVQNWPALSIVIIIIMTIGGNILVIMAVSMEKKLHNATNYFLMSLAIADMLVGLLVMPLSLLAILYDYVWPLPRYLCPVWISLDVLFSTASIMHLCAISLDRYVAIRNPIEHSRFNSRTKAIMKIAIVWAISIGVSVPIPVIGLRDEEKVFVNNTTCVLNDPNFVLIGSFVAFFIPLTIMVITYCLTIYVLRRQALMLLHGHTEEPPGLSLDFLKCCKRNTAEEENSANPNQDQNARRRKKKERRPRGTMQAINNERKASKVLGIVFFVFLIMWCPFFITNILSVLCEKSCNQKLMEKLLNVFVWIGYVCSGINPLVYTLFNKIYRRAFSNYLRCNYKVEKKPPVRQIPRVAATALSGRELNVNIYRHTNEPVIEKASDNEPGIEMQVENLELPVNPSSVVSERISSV
Procedure, shortened: (§1)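 EC50 came from a 4-parameter logistic fit, with Emax expressed relative to serotonin, of intracellular Ca2+ rises read on FLIPR at 480/530 nm, 25° C, over 3 min. Compounds ran from 10 μM in six 1:10 steps (0.2% DMSO) on serum-starved CHO-K1 transfectants pre-loaded 60 min with Ca4 dye and probenecid.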

5HT2B receptors = target: T2, 5HT2B receptors (Homo sapiens, UniProt P41595); test: Human 5-HT2B functional assay in CHO-K1 cells (calcium flux, FLIPR); format: cell-based
T2 construct: expressed in transfected cells; host or cells: CHO-K1 cells
T2 sequence (P41595 whole entry): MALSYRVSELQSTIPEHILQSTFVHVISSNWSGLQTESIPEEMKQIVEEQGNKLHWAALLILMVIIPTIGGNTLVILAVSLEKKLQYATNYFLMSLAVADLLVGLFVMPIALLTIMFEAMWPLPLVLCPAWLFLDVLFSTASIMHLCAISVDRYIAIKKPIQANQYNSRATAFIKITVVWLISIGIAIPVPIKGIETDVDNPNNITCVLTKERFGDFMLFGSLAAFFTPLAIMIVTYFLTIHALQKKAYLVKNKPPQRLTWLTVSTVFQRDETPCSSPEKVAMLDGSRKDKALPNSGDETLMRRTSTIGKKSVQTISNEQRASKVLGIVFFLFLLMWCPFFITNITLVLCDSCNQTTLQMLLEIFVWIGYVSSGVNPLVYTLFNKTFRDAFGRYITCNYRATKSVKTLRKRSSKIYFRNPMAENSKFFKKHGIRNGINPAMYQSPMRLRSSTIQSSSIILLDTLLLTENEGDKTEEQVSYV
Procedure, shortened: as §1

[1] = CHO-K1, read-out: Emax (%), 5-HT2c Agonist Activity, CHO-K1 cells
[2] = CHO-K1 cells over-expressing 5HT2C, calcium flux, read-out: EC50 (μM), 5-HT2c Agonist Activity
[3] = CHO-K1 cells over-expressing 5HT2B, calcium flux, read-out: EC50 (μM), 5-HT2B Agonist Activity
[4] = CHO-K1 cells, read-out: Emax (%), 5-HT2c Agonist Activity
[5] = CHO-K1 cells, percentage relative to the effect of serotonin, read-out: Emax (%), 5-HT2B Agonist Activity
[6] = CHO-K1, read-out: Emax (%), 5-HT2B Agonist Activity

| EC50 (5HT2C receptors; [2]) | EC50 (5HT2B receptors; [3]) | Emax (5HT2C receptors; [4]) | Emax (5HT2B receptors; [5]) | Structure (SMILES) | Emax (5HT2C receptors; [1]) | EC50 (5HT2C receptors) | EC50 (5HT2B receptors) | Emax (5HT2B receptors; [6]) |
| --- | --- | --- | --- | --- | --- | --- | --- | --- |
| 0.007 µM | 0.4 µM | 80% | 45% | c1ccc(CCc2ccc3c(c2)N2CCNC[C@@H]2CCO3)cc1 [Example 212, (4aS)-10-(2-phenylethyl)-2,3,4,4a,5,6-hexahydro-1H-pyrazino[2,1-d][1,5]benzoxazepine] |  |  |  |  |
| 0.03 µM | 1 µM | 120% | 25% | CC(C)Cc1ccc2c(c1)N1CCNC[C@@H]1CCO2 [Example 213, (4aS)-10-isobutyl-2,3,4,4a,5,6-hexahydro-1H-pyrazino[2,1-d][1,5]benzoxazepine] |  |  |  |  |
| 0.003 µM | > 10 µM | 110% |  | FC(F)(F)c1cccc2c1OCC[C@H]1CNCCN21 [Example 215, (4aS)-8-(trifluoromethyl)-2,3,4,4a,5,6-hexahydro-1H-pyrazino[2,1-d][1,5]benzoxazepine] |  |  |  |  |
| 0.07 µM | > 10 µM | 55% |  | FC(F)(F)c1ccc2c(c1)OCC[C@H]1CNCCN21 [Example 216, (4aS)-9-(trifluoromethyl)-2,3,4,4a,5,6-hexahydro-1H-pyrazino[2,1-d][1,5]benzoxazepine] |  |  |  |  |
| 0.01 µM | 0.09 µM | 100% | 70% | FC(F)(F)c1ccc2c(c1)N1CCNC[C@@H]1CCO2 [Example 217, (4aS)-10-(trifluoromethyl)-2,3,4,4a,5,6-hexahydro-1H-pyrazino[2,1-d][1,5]benzoxazepine] |  |  |  |  |
| 0.1 µM | > 10 µM | 50% |  | CN1CCN2c3cc(-c4cccc(S(C)(=O)=O)c4)ccc3OCC[C@H]2C1 [Example 221, (4aS)-3-methyl-10-[3-(methylsulfonyl)phenyl]-2,3,4,4a,5,6-hexahydro-1H-pyrazino[2,1-d][1,5]benzoxazepine] |  |  |  |  |
| 0.0008 µM | 0.4 µM | 100% | 50% | CC(O)c1cccc(-c2ccc3c(c2)N2CCNC[C@@H]2CCO3)c1 (stereo partly drawn) [Example 222, 1-{3-[(4aS)-2,3,4,4a,5,6-hexahydro-1H-pyrazino[2,1-d][1,5]benzoxazepin-10-yl]phenyl}ethanol] |  |  |  |  |
| 0.02 µM | > 10 µM | 100% |  | c1ccc(-c2cccc3c2OCC[C@H]2CNCCN32)cc1 [Example 223, (4aS)-8-phenyl-2,3,4,4a,5,6-hexahydro-1H-pyrazino[2,1-d][1,5]benzoxazepine] |  |  |  |  |
| 0.1 µM | 0.4 µM | 85% | 40% | c1cc(-c2ccc3c(c2)N2CCNC[C@@H]2CCO3)co1 [Example 224, (4aS)-10-(3-furyl)-2,3,4,4a,5,6-hexahydro-1H-pyrazino[2,1-d][1,5]benzoxazepine] |  |  |  |  |
| 0.009 µM | > 10 µM | 100% |  | CC(O)c1ccc(-c2ccc3c(c2)OCC[C@H]2CNCCN32)cc1 (stereo partly drawn) [Example 228, 1-{4-[(4aS)-2,3,4,4a,5,6-hexahydro-1H-pyrazino[2,1-d][1,5]benzoxazepin-9-yl]phenyl}ethanol] |  |  |  |  |
| 0.02 µM | > 10 µM | 100% |  | CC(O)c1cccc(-c2ccc3c(c2)OCC[C@H]2CNCCN32)c1 (stereo partly drawn) [Example 229, 1-{3-[(4aS)-2,3,4,4a,5,6-hexahydro-1H-pyrazino[2,1-d][1,5]benzoxazepin-9-yl]phenyl}ethanol] |  |  |  |  |
| 0.07 µM | > 10 µM | 90% |  | CS(=O)(=O)c1ccc(-c2ccc3c(c2)OCC[C@H]2CNCCN32)cc1 [Example 230, (4aS)-9-[4-(methylsulfonyl)phenyl]-2,3,4,4a,5,6-hexahydro-1H-pyrazino[2,1-d][1,5]benzoxazepine] |  |  |  |  |
| 0.003 µM | > 10 µM | 105% |  | CC(O)c1cccc(-c2cccc3c2OCC[C@H]2CNCCN32)c1 (stereo partly drawn) [Example 233, 1-{3-[(4aS)-2,3,4,4a,5,6-hexahydro-1H-pyrazino[2,1-d][1,5]benzoxazepin-8-yl]phenyl}ethanol] |  |  |  |  |
| 0.01 µM | 0.3 µM | 105% | 10% | CC(O)c1ccc(-c2cccc3c2OCC[C@H]2CNCCN32)cc1 (stereo partly drawn) [Example 234, 1-{4-[(4aS)-2,3,4,4a,5,6-hexahydro-1H-pyrazino[2,1-d][1,5]benzoxazepin-8-yl]phenyl}ethanol] |  |  |  |  |
| 0.3 µM | > 10 µM | 90% |  | CS(=O)(=O)c1cccc(-c2ccc3c(c2)OCC[C@H]2CNCCN32)c1 [Example 238, (4aS)-9-[3-(methylsulfonyl)phenyl]-2,3,4,4a,5,6-hexahydro-1H-pyrazino[2,1-d][1,5]benzoxazepine] |  |  |  |  |

Second part, the molecule before the results:

| Structure (SMILES) | EC50 (5HT2C receptors; [2]) | EC50 (5HT2B receptors; [3]) | Emax (5HT2C receptors; [4]) | Emax (5HT2B receptors; [5]) | Emax (5HT2C receptors; [1]) | EC50 (5HT2C receptors) | EC50 (5HT2B receptors) | Emax (5HT2B receptors; [6]) |
| --- | --- | --- | --- | --- | --- | --- | --- | --- |
| c1cc(-c2ccc3c(c2)N2CCNC[C@@H]2CCO3)ccn1 [Example 207, (4aS)-10-(pyridin-4-yl)-2,3,4,4a,5,6-hexahydro-1H-pyrazino[2,1-d][1,5]benzoxazepine] | 0.8 µM | > 10 µM |  |  | > 120% |  |  |  |
| CC(C)=Cc1ccc2c(c1)N1CCNC[C@@H]1CCO2 [Example 208, (4aS)-10-(2-methylprop-1-en-1-yl)-2,3,4,4a,5,6-hexahydro-1H-pyrazino[2,1-d][1,5]benzoxazepine] | 0.001 µM | 0.1 µM | > 120% | 50% |  |  |  |  |
| C1=C(c2ccc3c(c2)N2CCNC[C@@H]2CCO3)CCCC1 [Example 209, (4aS)-10-(cyclohex-1-en-1-yl)-2,3,4,4a,5,6-hexahydro-1H-pyrazino[2,1-d][1,5]benzoxazepine] | 0.01 µM | > 10 µM | > 120% |  |  |  |  |  |
| C1=C(c2ccc3c(c2)N2CCNC[C@@H]2CCO3)CCOC1 [Example 210, (4aS)-10-(3,6-dihydro-2H-pyran-4-yl)-2,3,4,4a,5,6-hexahydro-1H-pyrazino[2,1-d][1,5]benzoxazepine] | 0.01 µM | 1 µM | > 120% | 20% |  |  |  |  |
| CCc1ccc2c(c1)N1CCNC[C@@H]1CCO2 [Example 211, (4aS)-10-ethyl-2,3,4,4a,5,6-hexahydro-1H-pyrazino[2,1-d][1,5]benzoxazepine] |  |  |  |  | 70% | 0.02 µM | 0.04 µM | 45% |
| Clc1cc2c(cc1Cl)N1CCNC[C@@H]1CCO2 [Example 214, (4aS)-9,10-dichloro-2,3,4,4a,5,6-hexahydro-1H-pyrazino[2,1-d][1,5]benzoxazepine] |  |  |  |  | > 120% | 0.002 µM | 0.03 µM | 60% |
| Fc1ccc2c(c1F)OCC[C@H]1CNCCN21 [Example 218, (4aS)-8,9-difluoro-2,3,4,4a,5,6-hexahydro-1H-pyrazino[2,1-d][1,5]benzoxazepine] |  |  |  |  | 100% | 0.002 µM | 0.07 µM | 20% |
| CN1CCN2c3ccc(Cl)cc3OCC[C@H]2C1 [Example 220, (4aS)-9-chloro-3-methyl-2,3,4,4a,5,6-hexahydro-1H-pyrazino[2,1-d][1,5]benzoxazepine] |  |  |  |  | 40% | 0.04 µM | > 10 µM |  |
| Clc1cc(Cl)c2c(c1)N1CCNC[C@@H]1CCO2 [Example 225, (4aS)-8,10-dichloro-2,3,4,4a,5,6-hexahydro-1H-pyrazino[2,1-d][1,5]benzoxazepine] |  |  |  |  | 70% | 0.01 µM | 0.04 µM | 50% |
| Cc1cc(Cl)cc2c1OCC[C@H]1CNCCN21 [Example 227, (4aS)-10-chloro-8-methyl-2,3,4,4a,5,6-hexahydro-1H-pyrazino[2,1-d][1,5]benzoxazepine] |  |  |  |  | 85% | 0.008 µM | 0.05 µM | 20% |
| COc1ccc2c(c1)OCC[C@H]1CN(C)CCN21 [Example 232, (4aS)-9-methoxy-3-methyl-2,3,4,4a,5,6-hexahydro-1H-pyrazino[2,1-d][1,5]benzoxazepine] |  |  |  |  | 50% | 0.05 µM | > 10 µM |  |
| CCN1CCN2c3ccccc3OCC[C@H]2C1 [Example 235, (4aS)-3-ethyl-2,3,4,4a,5,6-hexahydro-1H-pyrazino[2,1-d][1,5]benzoxazepine] |  |  |  |  | 100% | 0.02 µM | > 10 µM |  |
| Brc1cccc2c1OCC[C@H]1CNCCN21 [Example 236, (4aS)-8-bromo-2,3,4,4a,5,6-hexahydro-1H-pyrazino[2,1-d][1,5]benzoxazepine] |  |  |  |  | 100% | 0.002 µM | 0.01 µM | 10% |
| CCc1cccc2c1OCC[C@H]1CNCCN21 [Example 237, (4aS)-8-ethyl-2,3,4,4a,5,6-hexahydro-1H-pyrazino[2,1-d][1,5]benzoxazepine] |  |  |  |  | 90% | 0.005 µM | > 10 µM |  |
